In patent US20150010639A1, “PHAR[…] DIETARY COMPOSITIONS BASED ON SHORT-CHAIN FATTY ACIDS AND COMPLEX SUGARS, FOR INTESTINAL DISORDERS” (COSMO TECHNOLOGIES LTD., priority 2004, published 2015):

System: inflammatory bowel disease (IBD), symptom of diarrhoea
Test: clinical study in patients with inflammatory bowel disease (IBD): symptom of diarrhoea on subjective 5-point scale
Assay type: in vivo, adult patients
Conditions: n = 6 IBD patients; for Diarrhoea % improvement relative to the base time / Diarrhoea mean intensity, final: after 4 weeks of daily oral treatment, 250 mg of each active; for Diarrhoea mean intensity, final / Diarrhoea mean intensity, base: scale 0 to 4; for Diarrhoea mean intensity, base: base time before treatment
Method: The clinical study described below was performed with the tablets thus produced.
The study was performed on 18 adult patients of both sexes, divided into three homogeneous groups each of 6 patients, who were suffering from inflammatory bowel disease (IBD) and were treated as follows:
Group 1: 250 mg butyric acid
Group 3: 250 mg butyric acid+250 mg inulin
The active ingredients were transported in tablets which were indistinguishable in shape, size, weight and colour.
The treatments were administered orally daily before the main meal for a period of 4 weeks.
Before the start of the treatment (base time) and then upon completion of the 4 weeks of treatment, each patient was assessed for the presence of the symptom of diarrhoea.
This symptom was quantified, according to its intensity, on a subjective 5-point scale graduated from 0 (absence of indisposition) to 4 (indisposition of considerable gravity). The mean intensity at the base time and at the end of the period of treatment and the percentage of improvement relative to the base time were calculated for this symptom.

Molecule | Diarrhoea % improvement relative to the base time | Diarrhoea mean intensity, final | Diarrhoea mean intensity, base
CCCC(=O)O [butyric acid] | 44% | 1.5 | 2.7
inulin | 27% | 2.1 | 2.9
